Key:
transplanted rice = assay: Herbicidal damage on transplanted paddy rice, paddy field pot test; assay type: in vivo, Oryza sativa L. cultivar: Nihonbare; conditions: 125 g ai/ha applied onto water surface 5 days after transplanting; rated 3 weeks after treatment; 100% complete withering, 0% no damage
Source text: (§1) Test of herbicidal effect to weeds and damage on paddy rice in a paddy field: In a greenhouse, each three paddy rice seedlings (Oryza sativa L. cultivar: Nihonbare) were transplanted in each pot filled with paddy field soil. Each twenty forced sprouts of paddy rice (Oryza sativa L. cultivar: Nihonbare) were also inoculated in each pot. Then, any of seeds or tubers of Cyperus difformis L., Echinochloa crus-galli, Scirpus juncoides, SU-resistant Scirpus juncoides, annual broad leaf weeds (including Lindernia procumbens Philcox, Rotala indica Koehne, and Elatine triandra Schk), SU-resistant annual broad leaf weeds, Sagittaria pygmaea Miq, Cyperus serotinus Rottboel was inoculated in the pot and covered with water in about 2 to 3 cm depth. Five days after transplanting paddy rice, prescribed diluted solutions of formulations of the respective active compounds were applied onto the water surface. Each of the formulations was prepared as an emulsion by mixing 1 part by weight of active compound with 5 parts by weight of carrier and 1 part by weight of emulsifier (benzyloxy polyglycol ether). After the treatment, water depth of 3 cm was kept. A herbicidal effect and a herbicidal damage on paddy rice were investigated 3 weeks after the treatment. The herbicidal effect and the herbicidal damage on paddy rice were rated as 100% in the case of complete withering and 0% in the case of no herbicidal effect or no herbicidal damage.

directley seeded rice = assay: Herbicidal damage on directly seeded paddy rice, paddy field pot test; assay type: in vivo, Oryza sativa L. cultivar: Nihonbare; conditions: 125 g ai/ha applied onto water surface; rated 3 weeks after treatment; 100% complete withering, 0% no damage
Source text: as §1

Cyperus serotinus = assay: Herbicidal effect to weeds in a paddy field, pot test; assay type: in vivo, Cyperus serotinus Rottboel; conditions: 125 g ai/ha applied onto water surface; rated 3 weeks after treatment; 100% complete withering, 0% no effect
Source text: as §1

Sagittaria pygmaea = assay: as above; assay type: in vivo, Sagittaria pygmaea Miq; conditions: 125 g ai/ha applied onto water surface; rated 3 weeks after treatment; 100% complete withering, 0% no effect
Source text: as §1

Echinochloa crus-galli = assay: as above; assay type: in vivo; conditions: 125 g ai/ha applied onto water surface; rated 3 weeks after treatment; 100% complete withering, 0% no effect
Source text: as §1

[1] = test system: SU-resistant Scirpus juncoides; assay: as above; assay type: in vivo; conditions: 125 g ai/ha applied onto water surface; rated 3 weeks after treatment; 100% complete withering, 0% no effect
Source text: as §1

[2] = test system: SU-resistant annual broad leaf weeds; assay: as above; assay type: in vivo; conditions: 125 g ai/ha applied onto water surface; rated 3 weeks after treatment; 100% complete withering, 0% no effect
Source text: as §1

Scirpus juncoides = assay: as above; assay type: in vivo; conditions: 125 g ai/ha applied onto water surface; rated 3 weeks after treatment; 100% complete withering, 0% no effect
Source text: as §1

annual broad leaf weeds = assay: as above; assay type: in vivo; conditions: 125 g ai/ha applied onto water surface; rated 3 weeks after treatment; 100% complete withering, 0% no effect
Source text: as §1

Structure (SMILES) | herbicidal damage on transplanted rice (transplanted rice) | herbicidal damage on directley seeded rice (directley seeded rice) | herbicidal effect Cyperus serotinus (Cyperus serotinus) | herbicidal effect Sagittaria pygmaea (Sagittaria pygmaea) | herbicidal effect Echinochloa crus-galli (Echinochloa crus-galli) | herbicidal effect SU-resistant Scirpus juncoides [1] | herbicidal effect SU-resistant annual broad leaf weeds [2] | herbicidal effect Scirpus juncoides (Scirpus juncoides) | herbicidal effect annual broad leaf weeds (annual broad leaf weeds)
COc1cc(OC)nc(C(=O)c2cccc(Br)c2NS(=O)(=O)CC(F)(F)F)n1 [Compound 2, 2-bromo-6-[(4,6-dimethoxypyrimidin-2-yl)carbonyl]-N-2,2,2-trifluoroethanesulfonanilide] | 10% | 20% | 100% | 100% | 100% | 100% | 100% | 100% | 100%
COc1cc(OC)nc(C(O)c2cccc(Br)c2NS(=O)(=O)CC(F)(F)F)n1 (centres unmarked) [Compound 1, 2-bromo-6-[(4,6-dimethoxypyrimidin-2-yl)(hydroxy)methyl]-N-2,2,2-trifluoroethanesulfonanilide] | 0% | 10% | 100% | 100% | 100% | 100% | 100% | 100% | 100%
COc1cc(OC)nc(C(SC)c2cccc(Br)c2NS(=O)(=O)CC(F)(F)F)n1 (centres unmarked) [Compound 4, 2-bromo-6-[(4,6-dimethoxypyrimidin-2-yl)methylthiomethyl]-N-2,2,2-trifluoroethanesulfonanilide] | 0% | 10% | 100% | 100% | 100% | 90% | 100% | 100% | 100%
COc1cc(Cl)nc(C(=O)c2cccc(Cl)c2N(C)S(=O)(=O)C(F)F)n1 [Compound 51, N-{2-chloro-6-[(4-chloro-6-methoxypyrimidin-2-yl)carbonyl]phenyl}-N-methyl-1,1-difluoromethanesulfonamide] | 10% | 30% | 100% | 100% | 100% | 90% | – | 100% | 90%
COc1cc(OC)nc(C(O)c2cccc(I)c2NS(=O)(=O)CC(F)(F)F)n1 (centres unmarked) [Compound 5, 2-iodo-6-[(4,6-dimethoxypyrimidin-2-yl)(hydroxy)methyl]-N-2,2,2-trifluoroethanesulfonanilide] | 20% | 30% | 100% | 100% | 100% | 90% | 100% | 100% | 100%
COc1nc(OC)nc(C(=O)c2cccc(Br)c2N(C)S(=O)(=O)C(F)F)n1 [Compound 10, N-{2-bromo-6-[(4,6-dimethoxy-1,3,5-triazin-2-yl)carbonyl]phenyl}-N-methyl-1,1-difluoromethanesulfonamide] | 10% | 30% | 100% | 100% | 100% | 90% | 100% | 100% | 90%
COc1cc(OC)nc(C(SC)c2cccc(I)c2NS(=O)(=O)CC(F)(F)F)n1 (centres unmarked) [Compound 8, 2-iodo-6-[(4,6-dimethoxypyrimidin-2-yl)(methylthio)methyl]-N-2,2,2-trifluoroethanesulfonanilide] | 0% | 10% | 100% | 100% | 100% | 90% | 100% | 100% | 100%

Reference: patent publication US20090062536A1, “USE OF SULFONANILIDE COMPOUNDS AS HERBICIDE” (Bayer CropScience AG, priority 2007, published 2009)
